In patent US20220031607A1, “INJECTION COMPOSITION CONTAINING FAB I INHIBITOR, AND PREPARATION METHOD THEREFOR” (CRYSTALGENOMICS, INC., priority 2019, published 2022):

Assays:
[1] = Evaluation of excipient suitability (related substances on storage at 60° C.); assay type: physicochemical; set-up: Total related substances, Initial value: unit not given here; conditions: for Total related substances, Severe (1 week): 60° C.
Experimental: The resulting product was stored at 60° C. and the stability of the compound of formula 1 was measured. The measurement of related substances was evaluated according to the guidelines for the evaluation of related substances of the Ministry of Food and Drug Safety, and the results are shown in Table 2.

[2] = Solubility in excipients and solvents by HPLC analysis; assay type: physicochemical; conditions: for solubility at 1 h: thermodynamic from solid
Experimental: The excipients approved as pharmaceutical additives and solvents that can be used for future process studies were selected as shown in Table 1. A small amount of the compound of formula 1 was added and dissolved. The addition operation was repeated until completely dissolved. Finally, it was stirred at room temperature for one hour and then filtered to determine the concentration of the compound of formula 1 dissolved in the filtrate through HPLC analysis.
20 μL of each the test solution and the standard solution were tested according to a liquid chromatography method (HPLC) of general test methods of the Korean Pharmacopoeia under the following conditions, and the peak area of the main component of each solution was measured.
Operating Condition and Calculation
Detector: UV spectrophotometer (measurement wavelength 286 nm)
Column: Aegispak C18-L (4.6 mm×250 mm, 5 μm) column
Column temperature: 25° C.
Mobile phase: Acetonitrile:water=3:2

[3] = system: Methicillin-resistant Staphylococcus aureus (MRSA) strains; assay: Drug susceptibility (MIC) of MRSA clinical isolates; assay type: cell-based; conditions: Methicillin-resistant, n = 100
Experimental: In order to verify the inhibitory effect of the compound of formula 1 on antibiotic-resistant strains, drug susceptibility was evaluated by treating the compound of formula 1 with Staphylococcus aureus phenotype isolated from each patient. In an in vitro test for antibiotic development, the most important result can be MIC90 (minimum inhibitory concentration required to inhibit the growth of 90% of the total bacterial population). […] Appelbaum at Hershey Hospital who is recognized for its authority in the field of anti-infection worldwide.

[4] = Stability after dilution of prepared freeze-dried powder in physiological saline; assay type: physicochemical; conditions: 16% HP-beta-cyclodextrin solution, 60 °C, aqueous with cosolvent or surfactant or cyclodextrin, thermodynamic from solid; in 16% HP-beta-cyclodextrin; read-out: highest solubility
Experimental: Hydroxypropyl beta-cyclodextrin (HP-beta-cyclodextrin) was dissolved in distilled water for injection under stirring at room temperature and heated to 60° C., and the compound of formula 1 was added thereto, stirred and enclosed therein. The liquid injection was sterilized and filtered through 0.22 μm filter paper. The filtered injection solution was filled into a glass vial, cooled at −80° C., and freeze-dried to commercialize.

[5] = Evaluation of water solubility according to pH; assay type: physicochemical; conditions: thermodynamic from solid
Experimental: Experimental Example 1-1: […] After completion of the stirring, insoluble substances that may remain were removed by first centrifugation and second filtration with 0.22 μm filter. The substances were diluted with organic solvent methanol and analyzed by HPLC for […] of the solubility. […] As the pH increases, the solubility tends to decrease rapidly.

[6] = system: Staphylococcus aureus 13B-382 (MRSA, clinical strain); assay: Susceptibility test (MIC), clinical strain; assay type: cell-based; conditions: Staphylococcus aureus 13B-382, read-out: MIC
Experimental: For the compound of formula 1, pharmacokinetic/pharmacodynamic experiments were conducted using a mouse infection model. To this end, experiments were conducted with Staphylococcus aureus ATCC 29213 (MSSA, standard strain) and 13B-382 (MRSA, clinical strain). As a medium, Mueller-Hinton broth or Cation-adjusted Mueller-Hinton broth was used. For the susceptibility test (minimum inhibitory concentration (MIC)), the compound of formula 1 was used.

[7] = mixed with Beta-Hydroxypropyl cyclodextrin

Cc1c(N)cccc1Cn1ccc(OCCc2cccs2)cc1=O [Compound of formula 1, 1-(3-amino-2-methylbenzyl)-4-(2-thiophen-2-yl-ethoxy)-1H-pyridin-2-one]
Total related substances, Initial value ([1]; Compound of formula 1 alone): 0.5
Total related substances, Severe (1 week) ([1]; Compound of formula 1 alone): 0.5
Total related substances, Initial value [1, 7]: 0.5
Total related substances, Severe (1 week) [1, 7]: 0.6
Total related substances, Initial value ([1]; mixed with Cremophor 40): 1.6
Total related substances, Severe (1 week) ([1]; mixed with Cremophor 40): 3.4
Total related substances, Initial value ([1]; mixed with Glycerin): 1.4
Total related substances, Severe (1 week) ([1]; mixed with Glycerin): 1.1
Total related substances, Initial value ([1]; mixed with Labrasol): 6.2
Total related substances, Initial value ([1]; mixed with Oleic acid): 6.2
Total related substances, Initial value ([1]; mixed with Olive oil): 1.1
Total related substances, Severe (1 week) ([1]; mixed with Olive oil): 0.7
Total related substances, Initial value ([1]; mixed with PEG): 1.1
Total related substances, Initial value ([1]; mixed with PEG 400): 6.4
Total related substances, Severe (1 week) ([1]; mixed with PEG 400): 9.8
Total related substances, Initial value ([1]; mixed with PEG 20,000): 4.2
Total related substances, Severe (1 week) ([1]; mixed with PEG 20,000): 1
Total related substances, Severe (1 week) ([1]; mixed with PEG): 7
Total related substances, Initial value ([1]; mixed with PVA): 0.9
Total related substances, Initial value ([1]; mixed with PVA 2,000): 0.9
Total related substances, Severe (1 week) ([1]; mixed with PVA 2,000): 0.6
Total related substances, Severe (1 week) ([1]; mixed with PVA): 0.6
Total related substances, Initial value ([1]; mixed with Poloxamer 407): 0.9
Total related substances, Severe (1 week) ([1]; mixed with Poloxamer 407): 0.5
Total related substances, Initial value ([1]; mixed with Propylene glycol): 1
Total related substances, Severe (1 week) ([1]; mixed with Propylene glycol): 5
Total related substances, Initial value ([1]; mixed with Solutol HS 15): 0.7
Total related substances, Severe (1 week) ([1]; mixed with Solutol HS 15): 3.8
Total related substances, Initial value ([1]; mixed with Soybean Oil): 1.1
Total related substances, Severe (1 week) ([1]; mixed with Soybean Oil): 1.4
Total related substances, Initial value ([1]; mixed with Transcutol HP): 1.9
Total related substances, Severe (1 week) ([1]; mixed with Transcutol HP): 9.1
Total related substances, Initial value ([1]; mixed with Tween 80): 1.2
Total related substances, Severe (1 week) ([1]; mixed with Tween 80): 2.6
Stability with excipients ([1]; with soybean oil, olive oil, Tween 80, PEG 20000, PVA, PVA 2000, poloxamer 407, beta-hydroxypropyl cyclodextrin, glycerin): relatively stable
solubility at 1 h ([2]; Capryol 90, oil or lipid, in Capryol 90): 2900 µg/mL
solubility at 1 h ([2]; DMSO, organic solvent or mixture, in DMSO): 180000 µg/mL
solubility at 1 h ([2]; Labrasol, aqueous with cosolvent or surfactant or cyclodextrin, in Labrasol): > 20000 µg/mL
solubility at 1 h ([2]; PEG 300, organic solvent or mixture, in PEG 300): > 20000 µg/mL
solubility at 1 h ([2]; Peceol, oil or lipid, in Peceol): 4400 µg/mL
solubility at 1 h ([2]; Solutol HS 15, aqueous with cosolvent or surfactant or cyclodextrin, in Solutol HS 15): ≥ 10000 µg/mL
solubility at 1 h ([2]; Tween 20, aqueous with cosolvent or surfactant or cyclodextrin, in Tween 20): > 20000 µg/mL
solubility at 1 h ([2]; Tween 80, aqueous with cosolvent or surfactant or cyclodextrin, in Tween 80): ≥ 10000 µg/mL
solubility at 1 h ([2]; glycerol, organic solvent or mixture, in Glycerol): 260 µg/mL
Solubility ([2]; in Ethanol): 3650 µg/mL
Solubility ([2]; in Methanol): 6140 µg/mL
Solubility ([2]; in Propylene glycol): 3800 µg/mL
solubility at 1 h ([2]; methyl chloride, organic solvent or mixture, in Methyl chloride): ~60000 µg/mL
solubility at 1 h ([2]; oleic acid, oil or lipid, in Oleic acid): 2000 µg/mL
solubility at 1 h ([2]; pH 2.0 solution, pH 2, simulated gastric fluid, in pH 2.0): 440 µg/mL
solubility at 1 h ([2]; soybean oil, oil or lipid, in Soybean Oil): ~8500 µg/mL
MIC Range [3]: 0.06 to 1.0 µg/mL
MIC50 ([3]; Staphylococcus aureus, MRSA, read-out: MIC50): 0.25 µg/mL
MIC90 ([3]; Staphylococcus aureus, MRSA, read-out: MIC90): 0.25 µg/mL
Solubility [4]: 3000 µg/mL
solubility at 2 h ([5]; aqueous buffer, aqueous solution pH 3, room temperature): 6 µg/mL
solubility at 2 h ([5]; aqueous buffer, aqueous solution pH 7, room temperature): 2.5 µg/mL
solubility at 2 h ([5]; aqueous solutions, aqueous buffer, pH 4 to 8): 2 to 5 µg/mL
solubility at 2 h ([5]; simulated gastric fluid, aqueous solution pH 1.2, room temperature): ~1000 µg/mL
MIC [6]: 0.25 µg/mL
